Data taken from PMC3098219, “Protective Efficacy of Serially Up-Ranked Subdominant CD8^+ T Cell Epitopes against Virus Challenges” (PLoS Pathogens, 2011).

What was measured:
[1] = test system: CD8^+ splenocytes of DNA-immunized mice; test: ICS T cell avidity (peptide titration, CD107a/b and IFN-γ); type: cell-based, BALB/c mice; settings: Figure 3B; individual determinants when dominant: H in group HIVA, P in HIVAdH, G1 in dHmP, NPP in dHmPG1; 3x 100 µg DNA; 5 h
Procedure: T2 cell lines were incubated with decreasing peptide concentrations ranging from 100 µM to 0.1 µM indicated above the H peptide histogram and the cell surface peptide-loaded MHC complexes were detected by fluorochrome-conjugated mAb (DB Biosciences) and quantified using FACS flow cytometer. B) and C) Groups of 3 BALB/c mice were given 3x immunizations using 100 µg of DNA expressing the index or mutated forms of HIVA at 3 wk intervals and their T cell responses were analyzed 4 wk later. B) Splenocytes were assessed in an ICS assay using peptides indicated above the graphs at concentrations ranging from 10 to 10^−8 µM for 5 h. Cells were gated on IFN-γ-producing CD8^+ T cell populations positive (top) or negative (bottom) for CD107a/b. Note the different y-axis scales on the top and bottom graphs. C) The response kinetics of CD8^+ T cells re-stimulated with 0.1 µM peptides was assessed in an ICS assay in 1-h intervals for a period of 4 h. Data shown are as mean±SD of [CD8^+CD107a/b^+IFN-γ^+ cells at each time point (%)] ÷ [CD8^+CD107a/b^+IFN-γ^+ at 4 h (%)]. One out of two independent experiments is shown.
We also measured avidities of T cell responses recovered through the sequential HIVA epitope up-ranking. First, responsiveness of immune splenocytes following 3 plasmid DNA deliveries was measured in an ICS assay upon re-stimulation with peptide concentrations ranging from 10^−8 to 10 µM for 5 h (Figure 3A).

[2] = test system: CD8^+CD107a/b^+ T cells; test: Multicolour flow cytometry after mixed or split vaccination; type: cell-based, BALB/c mice
[3] = test system: CD8^+ T cells; test: ICS of HIVB-induced responses pre- and post-EcoHIV challenge; settings: Figure 7B, pTH.HIVB DNA twice

AMQMLKDTI [G1]
peak IFN-γ^+CD107a/b^+CD8^+ cell frequencies at 10 µM peptide [1]: 3.8 % of total CD8^+ splenocytes | G1-specific response relative to epitopes H and P ([2]; Figure 4B groups 4 and 5, HIVA-dHmP and dHmP-HIVA prime-boost, 23-wk rest, WR.HIVA re-stimulation): significantly increased | anti-G1 responses ([2]; Figure 4B groups 7 and 9, pre-mixed vaccines injected into 2 sites): failed to induce anti-G1 responses | CD8^+ T cell response after HIVB vaccination [3]: the only detectable CD8^+ T cell response
